Assay results from patent US11596620B2, “Formulations with reduced oxidation” (Genentech, Inc., priority 2013, dated 2023).

Tests used:
mAb1 = experiment: Light stress of mAb1 formulation (eight hours at 250 W/m^2), papain digest RP-HPLC; format: physicochemical, human; settings: mAb1 5 mg/mL, eight hours of light at 250 W/m^2
Method: L-tryptophan (L-Trp), an antioxidant used in protein formulations, has been recently shown to be photosensitive (Igarashi et al., Anal Sci 23(8):943-8 (2007)) and to have the ability to produce H2O2 upon light exposure. […] Control vials were wrapped in aluminum foil and treated similarly. After light exposure, solutions were prepared for analysis by reverse-phase HPLC. […] Following incubation, 900 μL of the solution was combined with 100 μL of 1 M dithiothreitol (DTT) and incubated for another thirty minutes at 37° C. Samples were then run on an Agilent, Inc. 1100/1200 HPLC system (Santa Clara, Calif.) equipped with UV detection at 280 nm in conjunction with a Varian, Inc. Pursuit 3 μm, 2 mm ID×250 mm diphenyl column (Palo Alto, Calif.). Mobile Phase A was 0.1% TFA in water. Mobile Phase B was 0.1% TFA in acetonitrile. The mobile phase gradient increased linearly from 34% B at 0 minutes to 43% B at 50.0 minutes, then to 95% B at 50.1 minutes. The gradient remained at 95% B until 60.1 minutes, and then decreased linearly from 95% B to 34% B between 60.1 and 60.2 minutes. The gradient remained at 34% B until the end of the cycle at 80.2 minutes. The column temperature was 65° C., total flow rate was 0.2 mL/min, and injection volume of each sample was 6 μL. Chromatograms were then integrated for quantification of oxidation.

[1] = H2O2 generation by free L-Trp upon light exposure, Amplex assay; format: physicochemical
Method: It was previously reported that L-Trp produced H2O2 via superoxide ion and in a sub-stoichiometric fashion while antibodies under similar conditions were producing catalytic amounts (Wentworth et al., Science 293(5536):1806-11 (2001); McCormick et al., Journal of the American Chemical Society 100:312-313 (1978)). To test the susceptibility of free L-Trp under pharmaceutically relevant conditions, such as under both ICH and ambient light conditions, formulations comprising 0.32 mM to 7.5 mM of L-Trp were exposed for 3 hours at 250 W/m^2 UV light and about 150 k lux visible light. Samples were taken and analyzed immediately via the Amplex assay to detect the amount of H2O2 generated under these conditions. […] When L-Trp was incubated with a combination of 50 mM NaN3 and 150 U superoxide dismutase (SOD) or SOD alone, significant amounts of H2O2 were still detected in the samples not containing NaN3.

N[C@@H](Cc1c[nH]c2ccccc12)C(=O)O [L-Trp, L-tryptophan]
Fc oxidation (mAb1; 1 mM L-Trp, reference material and foil control about 8%): over 20%
Fab oxidation (mAb1; no excipient or 1 mM L-Trp, reference material and foil control about 2%): ~9%
H2O2 generated upon light exposure ([1]; 0.32 mM to 7.5 mM L-Trp, 3 hours at 250 W/m^2 UV light and about 150 k lux visible light): large quantity of H2O2
H2O2 generation in the presence of 50 mM sodium azide ([1]; 3 hours at 250 W/m^2 UV light, 50 mM sodium azide): reduced greatly
